Columns and labels:
[1] = test system: α₁; experiment: α1-antagonistic effect on phenylephrine-induced vasoconstriction of rabbit isolated aorta; format: cell-based; settings: antagonism of vasoconstriction induced by phenylephrine (α₁-agonist)
Description: The α₁-antagonistic effect has been evaluated as antagonistic effect (pA₂) on vasoconstriction induced by phenylephrine (α₁-agonist) on rabbit isolated aorta. For compound A the obtained pA₂ value was 7.7.

[2] = molecular target: T1, D₂ receptor (Rattus norvegicus, UniProt P61169); experiment: Dopaminergic activity: receptor binding on isolated membranes of rat striated muscle, D2; settings: read-out: IC₅₀
T1 construct: from tissue; host or cells: isolated membranes of rat striated muscle (so in the source); probably striatum is meant
Description: (§1) The dopaminergic activity of compound A, for example, has been evaluated as percentage of receptor binding on isolated membranes of rat striated muscle; the IC₅₀ resulted to be 0.3 µM for D₂ receptor and 3 µM for D₁ receptor.

[3] = molecular target: T2, D₁ receptor (Rattus norvegicus, UniProt P18901); experiment: Dopaminergic activity: receptor binding on isolated membranes of rat striated muscle, D1; settings: read-out: IC₅₀
T2 construct: from tissue; host or cells: isolated membranes of rat striated muscle (so in the source); probably striatum is meant
Description: as §1

[4] = test system: spontaneously hypertensive rat; experiment: Systemic arterial pressure decrease after intravenous administration in spontaneously hypertensive rat; format: in vivo; settings: in comparison with the basal value
Description: The compounds object of the present invention after administration by intravenous route in spontaneously hypertensive rat at the dose of 0.033-0.53 µm/kg induce a meaningful systemic arterial pressure decrease comprised between 20 and 90 mmHg.

T2 sequence (P18901 whole entry): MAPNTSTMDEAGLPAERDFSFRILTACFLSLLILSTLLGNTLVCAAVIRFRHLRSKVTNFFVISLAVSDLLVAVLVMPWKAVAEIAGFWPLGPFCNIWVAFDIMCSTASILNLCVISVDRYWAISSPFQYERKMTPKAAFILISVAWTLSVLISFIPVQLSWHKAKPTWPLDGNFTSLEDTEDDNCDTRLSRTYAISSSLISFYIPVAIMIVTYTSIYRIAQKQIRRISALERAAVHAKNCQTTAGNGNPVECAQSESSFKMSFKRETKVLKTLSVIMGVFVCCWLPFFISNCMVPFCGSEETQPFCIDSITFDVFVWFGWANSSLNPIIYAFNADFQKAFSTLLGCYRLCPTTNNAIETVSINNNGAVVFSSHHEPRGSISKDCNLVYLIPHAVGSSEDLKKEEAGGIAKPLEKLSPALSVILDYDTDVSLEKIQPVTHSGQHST
T1 sequence (P61169 whole entry): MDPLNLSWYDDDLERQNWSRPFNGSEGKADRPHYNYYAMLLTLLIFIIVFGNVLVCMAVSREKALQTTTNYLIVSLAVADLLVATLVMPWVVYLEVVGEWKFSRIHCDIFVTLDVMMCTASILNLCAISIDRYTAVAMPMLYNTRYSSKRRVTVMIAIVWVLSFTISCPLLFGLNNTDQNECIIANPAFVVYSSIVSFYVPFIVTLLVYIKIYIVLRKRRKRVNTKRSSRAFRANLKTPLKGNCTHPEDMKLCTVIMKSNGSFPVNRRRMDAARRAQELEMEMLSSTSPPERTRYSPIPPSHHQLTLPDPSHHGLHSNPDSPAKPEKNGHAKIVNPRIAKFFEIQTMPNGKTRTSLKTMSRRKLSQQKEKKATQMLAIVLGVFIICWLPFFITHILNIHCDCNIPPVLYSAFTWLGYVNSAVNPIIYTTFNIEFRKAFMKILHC

**Q.** Which pA₂ [1] does the source give for CCCN(CCOc1ccccc1OC)CCc1ccc(O)c(O)c1.Cl [compound A, N-[2-(2-methoxyphenoxy)ethyl]-N-propyl-dopamine hydrochloride] here?
**A.** Its pA₂ is 7.7.

**Q.** And the IC50 [2]?
**A.** Its IC50 is 0.3 µM.

**Q.** And the IC50 [3]?
**A.** Its IC50 is 3 µM.

**Q.** And the “reduction of systemic arterial pressure” value ([4]; dose 12.5 µg/kg)?
**A.** The value was 51 mmHg.

**Q.** What about the “reduction of systemic arterial pressure” value ([4]; dose 200 µg/kg) of the same molecule?
**A.** Its value is 89 mmHg.

— EP0321967A2, “Compounds active on the cardiovascular system” (ZAMBON GROUP S.p.A., priority 1987, dated 1989)
